Assay results as given in patent US7138361B2, “Herbicidal heterocycles” (E. I. du Pont de Nemours and Company, priority 2000, dated 2006).

Key:
Format in all cases: in vivo
[1] = system: morning glory (Ipomoea hederacea); assay: Test B preemergence
Procedure, shortened: (§1)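 Visual injury scores, 0 = no effect to 100 = complete control, assigned against controls after 13 to 15 days in the greenhouse. Compounds formulated in non-phytotoxic solvent plus surfactant and applied to soil after planting (pre) or onto foliage of 1- to 4-leaf plants (post).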

[2] = system: giant foxtail (Setaria faberii); assay: Test B preemergence
Procedure, shortened: as §1

[3] = system: crabgrass (Digitaria sanguinalis); assay: Test B preemergence
Procedure, shortened: as §1

[4] = system: pigweed (Amaranthus retroflexus); assay: Test B preemergence
Procedure, shortened: as §1

[5] = system: velvetleaf (Abutilon theophrasti); assay: Test B preemergence
Procedure, shortened: as §1

corn (Zea mays) [6] = assay: Test B preemergence
Procedure, shortened: as §1

[7] = system: lambsquarters (Chenopodium album); assay: Test B preemergence
Procedure, shortened: as §1

[8] = system: barnyardgrass (Echinochloa crus-galli); assay: Test B preemergence
Procedure, shortened: as §1

rice (Oryza saliva) = assay: Test B preemergence
Procedure, shortened: as §1

[9] = system: Surinam grass (Brachiaria decumbens); assay: Test B preemergence
Procedure, shortened: as §1

[10] = system: cocklebur (Xanthium strumarium); assay: Test B preemergence
Procedure, shortened: as §1

[11] = system: morning glory (Ipomoea hederacea); assay: Test B postemergence; details: 13 to 15 days
Procedure, shortened: as §1

[12] = system: giant foxtail (Setaria faberii); assay: Test B postemergence; details: 13 to 15 days
Procedure, shortened: as §1

[13] = system: crabgrass (Digitaria sanguinalis); assay: Test B postemergence; details: 13 to 15 days
Procedure, shortened: as §1

[14] = system: wheat (Triticum aestivum); assay: Test B postemergence; details: 13 to 15 days
Procedure, shortened: as §1

[15] = system: pigweed (Amaranthus retroflexus); assay: Test B postemergence; details: 13 to 15 days
Procedure, shortened: as §1

[16] = system: velvetleaf (Abutilon theophrasti); assay: Test B postemergence; details: 13 to 15 days
Procedure, shortened: as §1

corn (Zea mays) [17] = assay: Test B postemergence; details: 13 to 15 days
Procedure, shortened: as §1

[18] = system: lambsquarters (Chenopodium album); assay: Test B postemergence; details: 13 to 15 days
Procedure, shortened: as §1

[19] = system: barnyardgrass (Echinochloa crus-galli); assay: Test B postemergence; details: 13 to 15 days
Procedure, shortened: as §1

wild oat (Avena fatua) = assay: Test B postemergence; details: 13 to 15 days
Procedure, shortened: as §1

[20] = system: Surinam grass (Brachiaria decumbens); assay: Test B postemergence; details: 13 to 15 days
Procedure, shortened: as §1

[21] = system: cocklebur (Xanthium strumarium); assay: Test B postemergence; details: 13 to 15 days
Procedure, shortened: as §1

[22] = system: blackgrass (Alopecurus myosuroides); assay: Test B postemergence; details: 13 to 15 days
Procedure, shortened: as §1

[23] = Preemergence, Rate 500 g/ha, scale 0 to 100, 0 no effect, 100 complete control
[24] = preemergence, Rate 125 g/ha, scale 0 to 100, 0 no effect, 100 complete control
[25] = Rate 125 g/ha, scale 0 (no effect) to 100 (complete control)
[26] = Rate 500 g/ha, scale 0 to 100, 0 is no effect, 100 is complete control
[27] = preemergence, Rate 125 g/ha, scale of 0 to 100 where 0 is no effect and 100 is complete control, 13 to 15 days

SMILES: O=C1C(n2ccc(C3CC3)n2)SCN1c1cccc(C(F)(F)F)c1 (stereo not drawn) [Compound 26]
- Plant response rating, Morningglory [1, 23]: 0
- Plant response rating, Morningglory [1, 24]: 0
- Plant response rating, Foxtail, Giant [2, 23]: 100
- Plant response rating, Foxtail, Giant [2, 24]: 100
- Plant response rating, Crabgrass [3, 23]: 100
- Plant response rating, Crabgrass [3, 24]: 100
- Plant response rating, Pigweed [4, 23]: 100
- Plant response rating, Pigweed [4, 24]: 100
- Plant response rating, Velvetleaf [5, 23]: 0
- Plant response rating, Velvetleaf [5, 24]: 0
- Plant response rating, Corn (corn (Zea mays) [6]; [23]): 70
- Plant response rating, Corn (corn (Zea mays) [6]; [24]): 10
- Plant response rating, Lambsquarters [7, 23]: 100
- Plant response rating, Lambsquarters [7, 24]: 100
- Plant response rating, Barnyardgrass [8, 23]: 100
- Plant response rating, Barnyardgrass [8, 24]: 100
- Plant response rating, Rice (rice (Oryza saliva); [23]): 80
- Plant response rating, Rice (rice (Oryza saliva); [24]): 40
- Plant response rating, Surinam grass [9, 23]: 70
- Plant response rating, Surinam grass [9, 24]: 40
- Plant response rating, Cocklebur [10, 23]: 0
- Plant response rating, Cocklebur [10, 24]: 0
- Plant response rating, Morningglory [11, 25]: 0
- Plant response rating, Morningglory [11, 26]: 10
- Plant response rating, Foxtail, Giant [12, 25]: 20
- Plant response rating, Foxtail, Giant [12, 26]: 50
- Plant response rating, Crabgrass [13, 25]: 0
- Plant response rating, Crabgrass [13, 26]: 20
- Plant response rating, Wheat [14, 25]: 0
- Plant response rating, Wheat [14, 26]: 0
- Plant response rating, Pigweed [15, 25]: 0
- Plant response rating, Pigweed [15, 26]: 60
- Plant response rating, Velvetleaf [16, 25]: 20
- Plant response rating, Velvetleaf [16, 26]: 20
- Plant response rating, Corn (corn (Zea mays) [17]; [25]): 0
- Plant response rating, Corn (corn (Zea mays) [17]; [26]): 70
- Plant response rating, Lambsquarters [18, 25]: 80
- Plant response rating, Lambsquarters [18, 26]: 80
- Plant response rating, Barnyardgrass [19, 25]: 0
- Plant response rating, Barnyardgrass [19, 26]: 80
- Plant response rating, Wild Oat (wild oat (Avena fatua); [25]): 0
- Plant response rating, Wild Oat (wild oat (Avena fatua); [26]): 0
- Plant response rating, Surinam grass [20, 25]: 20
- Plant response rating, Surinam grass [20, 26]: 20
- Plant response rating, Cocklebur [21, 25]: 50
- Plant response rating, Cocklebur [21, 26]: 60
- Plant response rating, Blackgrass [22, 25]: 0
- Plant response rating, Blackgrass [22, 26]: 0

SMILES: COc1cc(N2CCC(n3ccc(C(C)(C)C)n3)C2=O)ccc1C (stereo not drawn) [Compound 42]
- Plant response rating, Morningglory [1, 23]: 100
- Plant response rating, Foxtail, Giant [2, 23]: 100
- Plant response rating, Foxtail, Giant [2, 24]: 100
- Plant response rating, Crabgrass [3, 23]: 100
- Plant response rating, Crabgrass [3, 24]: 100
- Plant response rating, Pigweed [4, 23]: 100
- Plant response rating, Velvetleaf [5, 23]: 90
- Plant response rating, Corn (corn (Zea mays) [6]; [23]): 20
- Plant response rating, Corn (corn (Zea mays) [6]; [24]): 20
- Plant response rating, Lambsquarters [7, 23]: 100
- Plant response rating, Lambsquarters [7, 24]: 100
- Plant response rating, Barnyardgrass [8, 23]: 100
- Plant response rating, Barnyardgrass [8, 24]: 100
- Plant response rating, Rice (rice (Oryza saliva); [23]): 100
- Plant response rating, Surinam grass [9, 23]: 100
- Plant response rating, Surinam grass [9, 24]: 90
- Plant response rating, Cocklebur [10, 23]: 70
- Plant response rating, Cocklebur [10, 24]: 0
- Plant response rating, Morningglory [11, 25]: 60
- Plant response rating, Morningglory [11, 26]: 100
- Plant response rating, Foxtail, Giant [12, 25]: 50
- Plant response rating, Foxtail, Giant [12, 26]: 70
- Plant response rating, Crabgrass [13, 25]: 50
- Plant response rating, Crabgrass [13, 26]: 80
- Plant response rating, Wheat [14, 25]: 0
- Plant response rating, Wheat [14, 26]: 0
- Plant response rating, Pigweed [15, 25]: 80
- Plant response rating, Pigweed [15, 26]: 100
- Plant response rating, Velvetleaf [16, 25]: 50
- Plant response rating, Velvetleaf [16, 26]: 80
- Plant response rating, Corn (corn (Zea mays) [17]; [25]): 0
- Plant response rating, Corn (corn (Zea mays) [17]; [26]): 40
- Plant response rating, Lambsquarters [18, 25]: 70
- Plant response rating, Lambsquarters [18, 26]: 100
- Plant response rating, Barnyardgrass [19, 25]: 60
- Plant response rating, Barnyardgrass [19, 26]: 100
- Plant response rating, Wild Oat (wild oat (Avena fatua); [25]): 0
- Plant response rating, Wild Oat (wild oat (Avena fatua); [26]): 40
- Plant response rating, Surinam grass [20, 25]: 0
- Plant response rating, Surinam grass [20, 26]: 0
- Plant response rating, Cocklebur [21, 25]: 40
- Plant response rating, Cocklebur [21, 26]: 60
- Plant response rating, Blackgrass [22, 25]: 0
- Plant response rating, Blackgrass [22, 26]: 50

SMILES: CCC(CC)c1ccn(C2OCN(c3cccc(OC(F)(F)F)c3)C2=O)n1 (stereo not drawn) [Compound 68]
- Plant response rating, Morningglory [1, 23]: 0
- Plant response rating, Morningglory [1, 27]: 0
- Plant response rating, Foxtail, Giant [2, 23]: 20
- Plant response rating, Crabgrass [3, 23]: 20
- Plant response rating, Pigweed [4, 23]: 100
- Plant response rating, Pigweed [4, 27]: 100
- Plant response rating, Velvetleaf [5, 23]: 0
- Plant response rating, Velvetleaf [5, 27]: 0
- Plant response rating, Corn (corn (Zea mays) [6]; [23]): 20
- Plant response rating, Corn (corn (Zea mays) [6]; [27]): 0
- Plant response rating, Lambsquarters [7, 23]: 100
- Plant response rating, Lambsquarters [7, 27]: 100
- Plant response rating, Barnyardgrass [8, 23]: 100
- Plant response rating, Barnyardgrass [8, 27]: 100
- Plant response rating, Rice (rice (Oryza saliva); [23]): 30
- Plant response rating, Rice (rice (Oryza saliva); [27]): 0
- Plant response rating, Surinam grass [9, 23]: 0
- Plant response rating, Surinam grass [9, 27]: 0
- Plant response rating, Cocklebur [10, 23]: 0
- Plant response rating, Cocklebur [10, 27]: 0
- Plant response rating, Morningglory [11, 25]: 0
- Plant response rating, Morningglory [11, 26]: 0
- Plant response rating, Foxtail, Giant [12, 25]: 20
- Plant response rating, Foxtail, Giant [12, 26]: 40
- Plant response rating, Crabgrass [13, 25]: 90
- Plant response rating, Crabgrass [13, 26]: 100
- Plant response rating, Wheat [14, 25]: 0
- Plant response rating, Wheat [14, 26]: 0
- Plant response rating, Pigweed [15, 25]: 0
- Plant response rating, Pigweed [15, 26]: 0
- Plant response rating, Velvetleaf [16, 25]: 0
- Plant response rating, Velvetleaf [16, 26]: 20
- Plant response rating, Corn (corn (Zea mays) [17]; [25]): 0
- Plant response rating, Corn (corn (Zea mays) [17]; [26]): 0
- Plant response rating, Lambsquarters [18, 25]: 100
- Plant response rating, Lambsquarters [18, 26]: 100
- Plant response rating, Barnyardgrass [19, 25]: 90
- Plant response rating, Barnyardgrass [19, 26]: 100
- Plant response rating, Wild Oat (wild oat (Avena fatua); [25]): 0
- Plant response rating, Wild Oat (wild oat (Avena fatua); [26]): 0
- Plant response rating, Surinam grass [20, 25]: 20
- Plant response rating, Surinam grass [20, 26]: 30
- Plant response rating, Cocklebur [21, 25]: 50
- Plant response rating, Cocklebur [21, 26]: 80
- Plant response rating, Blackgrass [22, 25]: 0
- Plant response rating, Blackgrass [22, 26]: 0

SMILES: CC1(c2ccn(C3OCN(c4cccc(OC(F)(F)F)c4)C3=O)n2)CC1 (stereo not drawn) [Compound 69]
- Plant response rating, Morningglory [1, 23]: 0
- Plant response rating, Morningglory [1, 27]: 0
- Plant response rating, Foxtail, Giant [2, 23]: 0
- Plant response rating, Foxtail, Giant [2, 27]: 0
- Plant response rating, Crabgrass [3, 23]: 0
- Plant response rating, Crabgrass [3, 27]: 0
- Plant response rating, Pigweed [4, 23]: 90
- Plant response rating, Pigweed [4, 27]: 60
- Plant response rating, Velvetleaf [5, 23]: 0
- Plant response rating, Velvetleaf [5, 27]: 0
- Plant response rating, Corn (corn (Zea mays) [6]; [23]): 0
- Plant response rating, Corn (corn (Zea mays) [6]; [27]): 0
- Plant response rating, Lambsquarters [7, 23]: 100
- Plant response rating, Lambsquarters [7, 27]: 90
- Plant response rating, Barnyardgrass [8, 23]: 40
- Plant response rating, Barnyardgrass [8, 27]: 20
- Plant response rating, Rice (rice (Oryza saliva); [23]): 0
- Plant response rating, Rice (rice (Oryza saliva); [27]): 0
- Plant response rating, Surinam grass [9, 23]: 20
- Plant response rating, Surinam grass [9, 27]: 20
- Plant response rating, Cocklebur [10, 23]: 20
- Plant response rating, Cocklebur [10, 27]: 0
- Plant response rating, Morningglory [11, 25]: 0
- Plant response rating, Morningglory [11, 26]: 0
- Plant response rating, Foxtail, Giant [12, 25]: 0
- Plant response rating, Foxtail, Giant [12, 26]: 0
- Plant response rating, Crabgrass [13, 25]: 0
- Plant response rating, Crabgrass [13, 26]: 30
- Plant response rating, Wheat [14, 25]: 0
- Plant response rating, Wheat [14, 26]: 0
- Plant response rating, Pigweed [15, 25]: 0
- Plant response rating, Pigweed [15, 26]: 0
- Plant response rating, Velvetleaf [16, 25]: 0
- Plant response rating, Velvetleaf [16, 26]: 0
- Plant response rating, Corn (corn (Zea mays) [17]; [25]): 0
- Plant response rating, Corn (corn (Zea mays) [17]; [26]): 0
- Plant response rating, Lambsquarters [18, 25]: 80
- Plant response rating, Lambsquarters [18, 26]: 80
- Plant response rating, Barnyardgrass [19, 25]: 0
- Plant response rating, Barnyardgrass [19, 26]: 90
- Plant response rating, Wild Oat (wild oat (Avena fatua); [25]): 0
- Plant response rating, Wild Oat (wild oat (Avena fatua); [26]): 0
- Plant response rating, Surinam grass [20, 25]: 0
- Plant response rating, Surinam grass [20, 26]: 0
- Plant response rating, Cocklebur [21, 25]: 0
- Plant response rating, Cocklebur [21, 26]: 20
- Plant response rating, Blackgrass [22, 25]: 70
- Plant response rating, Blackgrass [22, 26]: 70
